From ChEMBL document CHEMBL1201862, “PubChem BioAssay data set” (2004)
Active and inactive are the calls of the source. Unless noted, no cut-off for these calls is given here.

Columns and labels:
Assay type in all cases: functional
[1] = biological target: Cyclin-dependent kinase 19 (Homo sapiens, UniProt Q9BWU1); test: Navigating the Kinome. Panel member name: CDC2L6
Focal adhesion kinase 1 = Focal adhesion kinase 1 (Homo sapiens, UniProt Q05397);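 note: measured as one member of a kinome panel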
[2] = THP-1 cell cytotoxicity, cytotoxicity control, set 6 (AID 602433); details: Mycobacterium tuberculosis
[3] = viability loss in Vero cells – cell-based, purified and synthesized samples, set 8, cytotoxicity control for M. tuberculosis inhibitor project (AID 602431); details: Mycobacterium tuberculosis
[4] = HepG2 cell cytotoxicity, cytotoxicity control, set 6 (AID 602432); details: Mycobacterium tuberculosis

Chain of Cyclin-dependent kinase 19 (Q9BWU1 whole entry): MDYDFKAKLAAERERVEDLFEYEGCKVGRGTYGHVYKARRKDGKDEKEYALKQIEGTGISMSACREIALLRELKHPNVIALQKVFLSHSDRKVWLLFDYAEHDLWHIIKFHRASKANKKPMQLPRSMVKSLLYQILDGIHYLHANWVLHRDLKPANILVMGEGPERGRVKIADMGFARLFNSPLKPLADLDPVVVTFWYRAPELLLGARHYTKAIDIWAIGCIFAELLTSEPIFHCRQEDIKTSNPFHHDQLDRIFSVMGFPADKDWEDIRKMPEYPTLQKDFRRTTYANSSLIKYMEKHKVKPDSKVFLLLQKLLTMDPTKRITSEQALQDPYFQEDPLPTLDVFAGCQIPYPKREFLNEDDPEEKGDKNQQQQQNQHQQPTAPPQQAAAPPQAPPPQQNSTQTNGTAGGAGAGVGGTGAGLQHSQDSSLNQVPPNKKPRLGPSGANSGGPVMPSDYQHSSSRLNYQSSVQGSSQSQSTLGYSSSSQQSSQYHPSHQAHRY
Chain of Focal adhesion kinase 1 (Q05397 whole entry): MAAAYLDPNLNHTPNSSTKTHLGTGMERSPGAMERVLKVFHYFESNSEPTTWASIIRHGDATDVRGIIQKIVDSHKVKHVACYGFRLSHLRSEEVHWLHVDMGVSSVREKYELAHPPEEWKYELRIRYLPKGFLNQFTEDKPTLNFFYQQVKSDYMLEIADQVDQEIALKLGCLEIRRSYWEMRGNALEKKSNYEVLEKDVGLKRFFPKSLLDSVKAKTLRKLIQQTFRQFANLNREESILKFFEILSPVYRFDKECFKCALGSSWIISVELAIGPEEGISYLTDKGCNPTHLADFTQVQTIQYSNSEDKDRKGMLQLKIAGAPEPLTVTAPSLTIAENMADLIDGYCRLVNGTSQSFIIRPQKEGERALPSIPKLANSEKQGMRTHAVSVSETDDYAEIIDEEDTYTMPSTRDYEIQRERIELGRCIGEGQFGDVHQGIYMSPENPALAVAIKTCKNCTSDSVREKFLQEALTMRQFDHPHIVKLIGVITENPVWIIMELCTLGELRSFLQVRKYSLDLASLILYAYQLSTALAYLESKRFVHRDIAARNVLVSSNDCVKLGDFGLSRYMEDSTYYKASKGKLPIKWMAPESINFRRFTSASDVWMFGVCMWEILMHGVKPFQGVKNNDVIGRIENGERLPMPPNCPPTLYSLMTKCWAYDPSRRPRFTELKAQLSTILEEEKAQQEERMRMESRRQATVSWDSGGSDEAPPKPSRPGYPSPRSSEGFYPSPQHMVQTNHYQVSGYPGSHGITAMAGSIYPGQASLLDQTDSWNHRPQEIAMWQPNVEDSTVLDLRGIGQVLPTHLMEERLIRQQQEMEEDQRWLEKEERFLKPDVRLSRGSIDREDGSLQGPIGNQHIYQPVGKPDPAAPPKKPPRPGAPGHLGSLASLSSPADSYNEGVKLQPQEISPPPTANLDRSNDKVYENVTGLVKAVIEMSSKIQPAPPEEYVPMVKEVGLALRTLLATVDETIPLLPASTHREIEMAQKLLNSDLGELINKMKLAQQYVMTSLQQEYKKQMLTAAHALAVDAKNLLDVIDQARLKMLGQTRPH

| SMILES | Ki [1] | Ki (Focal adhesion kinase 1) | CC50 [2] | CC50 [3] | CC50 [4] |
| --- | --- | --- | --- | --- | --- |
| COc1cccc(C(=O)Nc2cccc(-c3nc4sccn4c3-c3ccnc(Nc4ccc(N5CCOCC5)cc4)n3)c2)c1 | 10 µM (active) | 0.631 µM (active) |  |  |  |
| O=C(NCc1ccc(C(=O)N2CCC(c3ccccc3)CC2)cc1)NC1CCCCC1 |  |  | 65.8 µM (active) | 82.5 µM (active) | > 50 µM (inconclusive) |
